# Data: patent publication US20210353624A1, “METHOD OF TREATING CANCER WITH TELOTRISAT OR A PRODRUG THEREOF” (TerSera Therapeutics LLC, priority 2020, published 2021)
# Several values for one entry are separate records, joined by “and”; a condition that tells them apart may be missing. Equal entries are not always repeated.
# What was measured:
# [1] = tested on: locally advanced or metastatic neuroendocrine tumors (NETs); experiment: Retrospective single arm chart review (TELEACE): tumor progression, PFS, tumor size; format: in vivo, human; parameters: patients with progression-free survival (without tumor progression or death) (%) / Progression-free survival: Patients without outcome (%): concentration or dose not given beside the values; settings: for Difference in tumor size between pre and post-TE initiation, Estimate: longitudinal generalized linear regression (GEE), 95% CI (−16.1%, −0.2%), P=0.045, negative = decrease; for patients with progression-free survival (without tumor progression or death) (%) / patients without tumor progression (%): overall population
# Source text: This example provides a retrospective, single arm study of patients with locally advanced or metastatic neuroendocrine tumors (NETs) and documented carcinoid syndrome (CS). The patients received telotristat ethyl for at least 6 months. […] This example reports progression-free survival (PFS), time to tumor progression, changes in carcinoid syndrome (CS) symptoms, and indictors of overall health.
# Patients with poorly differentiated neuroendocrine tumors, mixed tumor types or conflicting clinical trial enrollment were excluded. Descriptive statistics, Kaplan-Meier and Chi-square tests were used to evaluate PFS, tumor progression, changes in CS symptoms, body weight and Eastern Cooperative Oncology Group (ECOG) performance status before and after telotristat ethyl initiation. Subgroup analyses were conducted in patients with the same pre- and post-telotristat ethyl background treatment.
# Adults with unresectable locally advanced or metastatic neuroendocrine tumors and evidence of carcinoid syndrome documented in their medical chart were eligible for inclusion if they had received telotristat ethyl for at least 6 months and had any additional carcinoid syndrome and neuroendocrine tumor treatment information available for at least six months after telotristat ethyl initiation or until death. The presence of carcinoid syndrome was based on the participating physician's assessment of information contained in the medical charts. Participating physicians were recruited by a professional recruiting organization (Dynata, Plano, Tex., USA) and had to have treated at least one eligible patient with telotristat ethyl in the past 12 months in order to participate. Eligible records had to have documented tumor size and tumor response assessments before and after telotristat ethyl initiation, including at least two radiological scans in the 12 months before telotristat ethyl and at least one scan after telotristat ethyl initiation. Patients with a histologically poorly differentiated neuroendocrine tumor based on grade (G3) or Ki67 index >20%, mixed tumor types according to physician notes, or documented enrollment in any clinical trial during the 6 months after telotristat ethyl initiation were excluded.
# Time to tumor progression was defined as the time from telotristat ethyl initiation to the first documented tumor progression in the medical chart. […] Progression-free survival (PFS) was defined as the time from telotristat ethyl initiation to tumor progression or death. […] Physician-assessed changes in body weight, Eastern Cooperative Oncology Group (ECOG) Performance Status, and CS symptoms including diarrhea, flushing, abdominal pain, nausea and ascites were abstracted from medical charts before and after telotristat ethyl initiation.
# In order to evaluate the effect of telotristat ethyl treatment on secondary clinical outcomes, analyses were conducted in the overall population and in a subgroup of patients who had the same documented non-telotristat ethyl neuroendocrine tumor treatment before and after telotristat ethyl initiation. Descriptive statistics summarized patient demographic and clinical characteristics, and changes in body weight and ECOG Performance Status after telotristat ethyl treatment initiation. Kaplan-Meier analyses estimated median time to tumor progression and median PFS. Chi-square test evaluated changes in documented CS symptoms (improved vs same/worsened) before and after telotristat ethyl initiation. All analyses were performed using SAS version 9.4 (SAS Institute, Cary, N.C., USA).
# A radiological scan performed immediately before telotristat ethyl initiation was evaluated. A radiological scan performed post-telotristat ethyl was also examined. Paired t-test was used to calculate P-value for tumor size. Statistical significance (P<0.001) was also confirmed using Wilcoxon signed rank test. […]
# [2] = tested on: normal cell lines: fallopian tube epithelium (FT240), ovarian surface epithelium (OSE22), first trimester placental fibroblasts (FTP); experiment: Cell confluence of normal cell lines grown with telotristat ethyl; format: cell-based; settings: 0, 5, 15 and 30 μM telotristat ethyl, 24 to 96 hours
# Experimental: This example provides experiments assessing the effects of telotristat ethyl on three aggressive cancer cell lines—liposarcoma (94T778), colon cancer (HT-29), and cholangiocarcinoma (TFK-1)—and three “normal” cell lines—fallopian tube epithelium (FT240), ovarian surface epithelium (OSE22), and first trimester placental fibroblasts (FTP).
# The cells were grown with 0, 5, 15 and 30 μM telotristat ethyl, plated into four-chambered slides with an initial confluence of at least 30%, and cultured for 24 to 96 hours. At the end of each 24-hour period, cell density was measured with hematoxylin, and the presence of 5-HT was assessed by immunohistochemistry. Experiments were performed in triplicate. Cell confluence was determined, and the 5-HT expression was recorded as an H-score.
# [3] = 6 months after TE initiation, listed as TE
# [4] = 12 months after TE initiation, listed as TE
# [5] = treatment subgroup n=65, 12 months
# [6] = treatment subgroup n=65, 18 months
structure (smiles),measurement,setting,value
"CCOC(=O)[C@@H](N)Cc1ccc(-c2cc(O[C@H](c3ccc(Cl)cc3-n3ccc(C)n3)C(F)(F)F)nc(N)n2)cc1 [telotristat ethyl, (S)-ethyl 2-amino-3-(4-(2-amino-6-((R)-1-(4-chloro-2-(3-methyl-1H-pyrazol-1-yl)phenyl)-2,2,2-trifluoroethoxy)pyrimidin-4-yl)phenyl)propanoate]","Tumor size (cm) Change from baseline, Mean ± SD","[1]; N=200, P<0.001",−0.5 ± 1.8 cm
same,"Tumor size (cm) Post-TE initiation, Mean (IQR)","[1]; N=200, pre-TE 3.5 (2.3, 5.0)","3.0 (2.0, 4.8) cm"
same,"Tumor size (cm) Post-TE initiation, Mean ± SD","[1]; N=200, pre-TE 3.9 ± 2.2",3.4 ± 2.3 cm
same,patients with improved (responded completely or partially) tumor response post-TE initiation,[1]; among 33 patients with worsened (progressed) tumor response pre-TE initiation,45%
same,average (SD) tumor size reduction,"[1]; from scan immediately before TE initiation until last scan post-TE, P<0.001",0.5 (1.8) cm
same,"Difference in tumor size between pre and post-TE initiation, Estimate",[1],−8.5%
same,"Difference in tumor size between pre and post-TE initiation, Estimate",[1]; listed as TE,−8.5%
same,median progression-free survival,"[1]; overall population n=200, Kaplan-Meier, IQR 17.8, 39.8",23.7 months
same,median time to tumor progression,"[1]; overall population n=200, Kaplan-Meier, IQR 18.7, 39.8",39.8 months
same,patients with progression-free survival (without tumor progression or death) (%),[1]; 6 months after TE initiation,90% and 89.5%
same,patients without tumor progression (%),[1]; 6 months after TE initiation,92%
same,patients with progression-free survival (without tumor progression or death) (%),[1]; [3],89.5%
same,patients without tumor progression (%),[1]; [3],92.0%
same,patients with progression-free survival (without tumor progression or death) (%),[1]; 12 months after TE initiation,80% and 79.9%
same,patients without tumor progression (%),[1]; 12 months after TE initiation,87% and 86.8%
same,patients with progression-free survival (without tumor progression or death) (%),[1]; [4],79.9%
same,patients without tumor progression (%),[1]; [4],86.8%
same,patients with progression-free survival (without tumor progression or death) (%),[1]; 18 months after TE initiation,72.1%
same,patients without tumor progression (%),[1]; 18 months after TE initiation,78.3%
same,Tumor progression: Patients without outcome (%),"[1]; treatment subgroup n=65 (same background treatment pre/post TE), 6 months",100.0%
same,Progression-free survival: Patients without outcome (%),"[1]; treatment subgroup n=65, 6 months",96.9%
same,Progression-free survival: Patients without outcome (%),[1]; [5],87.5%
same,Tumor progression: Patients without outcome (%),[1]; [5],90.4%
same,Progression-free survival: Patients without outcome (%),[1]; [6],87.5%
same,Tumor progression: Patients without outcome (%),[1]; [6],90.4%
same,cell confluence,[2],minimally impacted
